Legend:
[1] = cited from earlier work
[2] = tested on: Sod1tm1Leb/J mouse retina; type: in vivo, mice; details: 250 mg/kg IP once daily from three days before paraquat; 0.75 mM intravitreal paraquat; ERG days 1 and 7; n=4
From the text: In furtherance of the in vitro results of Example 1 we carried out an in vivo experiment examining the ability of valproic acid to protect against oxidative insult (oxidative stress) to mammalian retina. We used a murine model in which oxidative stress is induced by pre-dosing with intravitreal paraquat in Sod1^tm1Leb/J mouse model (as set forth in Dong A., et al., Superoxide Dismutase 1 Protects Retinal Cells From Oxidative Damage, J Cell Physio 208:516-526, 2006).
C57BL6 mice heterozygous from the SOD1 gene were obtained from Jackson labs (strain B6;129S7-Sod1tm1Leb/J). The mice were 3-4 months of age at the time of the experiment. […]
ERG recording were measured on dark adapted animals on days 1 and 7 post paraquat injection using an Espion ERG Diagnosys system and Burian-Allen electrodes, 3.0 mm diameter from LKC Technologies, Inc. For ERG recordings mice were anesthetized with ketamine (100 mg/kg) plus xylazine (50 mg/kg) administered IP and pupils dilated with 1% Akpentolate (cyclopentolate hydrochloride) and 10% AK-Dilate (phenylephrine hydrochloride). […] Scotopic ERGs were recorded using a 0.001, 0.01, and 1 cd·s/m2 flash as well as a 20 Hz flicker with the animal on a heating pad. A-wave, B-wave amplitudes were then calculated and statistically significant changes between valproic treated and non-treated animals determined using T test, n=4.

visual system = details: systemic administration to mammals (Goto et al. 2003, rats); cited from earlier work

| Compound | water solubility [1] | effect on paraquat induced decrease in ERG B-wave amplitude [2] | effect on ERG a- and b-wave amplitudes and VEP (visual system) |
| --- | --- | --- | --- |
| CCCC(CCC)C(=O)[O-].[Na+] [sodium valproate] | highly water soluble |  |  |
| CCCC(CCC)C(=O)O [valproic acid, 2-propylpentanoic acid] |  | significantly inhibited paraquat induced decrease in B-wave amplitude | suppress ERG a- and b-wave amplitudes as well as VEP |
